# Reference: publication PMC9436767, “Optical control of the β2-adrenergic receptor with opto-prop-2: A cis-active azobenzene analog of propranolol” (iScience, 2022)
# Where “and” joins values, the source holds several entries; their conditions need not be identical. Equal entries are not always repeated.
# Legend:
# [1] = Time-resolved light-induced isomerization by 1H NMR and LCMS
# Excerpt: The kinetic properties of light-induced isomer switching were further characterized using these wavelengths. Switching was monitored by ^1H NMR (Figures 2B and 2D) and LCMS (Figures 2C and 2E) analyses in tandem. The ^1H NMR signal of the ortho C-H proton adjacent to the ether function was selected as a clearly resolved signal to quantify the level of isomerization (Figure 2D).
# NMR, LC and UV-Vis spectra were plotted in GraphPad Prism 8 and were visualized by fitting the data to a second order polynomial with a smooth function, using 4 neighboring data points. […] For the time-resolved isomerization experiments, integration of the peak areas was performed with Shimadzu and MestreNova software for LC and NMR integration, respectively. The normalized peak areas over time were fitted by non-linear regression in GraphPad Prism 8 using a one-phase exponential model which yields the t1/2 value of the isomerization reaction and the extrapolated PSS (i.e. the asymptote).
# [2] = PSScis and PSStrans by LC analysis; format: physicochemical; conditions: LCMS area at isosbestic wavelength
# Method: Solubility in buffer was explored for all compounds using nephelometry ([Bevan and Lloyd, 2000]) and these studies indicate good solubility of all azobenzene photoswiches up to at least 100 μM (Figure S1). […] For all compounds, 360 nm induces a large change in absorbance spectrum compared with the non-illuminated (dark) compounds (Table 1, Figure 2A, and S1), indicating photoisomerization to the cis-isomer. The absorbance peak (λmax) of Opto-prop-1-3 ranged between 319 and 347 nm for the trans-isomers and between 423 and 429 for the cis-isomers (Table 1), as is typical for azobenzene compounds ([Hauwert et al., 2018]). […] The photochemical conversions were determined by continuous illumination of the Opto-prop compounds with near UV-light (360 ± 20 nm) as 10-mM solutions in DMSO. Based on LCMS analysis, it was observed that all compounds obtained a high level of conversion to the cis-isomer with a photostationary state (PSS) of >88 area % cis-isomer (i.e. PSScis; Table 1). Subsequent back-switching to PSStrans with 434 nm maintained 22–29 area % cis-isomer (Table 1). The thermal relaxation of the PSScis state of the photoswitchable ligands was monitored over time by measuring absorbance at 254 nm. Only minor thermal relaxation to the trans-isomer could be detected at 20°C (not shown). An estimate of the relaxation rate at 20 °C was determined using a method by Priimagi et al. ([Ahmed et al., 2017]), which was performed in Hanks’ balanced salt solution (HBSS) using increased temperatures to enhance the speed of thermal relaxation. The Opto-prop ligands are all very stable as cis-isomer after illumination, with thermal relaxation half-lives of >10 days at 20 °C (See Table 1 and Figure S1).
# For the determination of PSScis and PSStrans values by LC analysis (Table 1), a solution of the compound in DMSO (10 mM) was illuminated to PSScis with 360 nm and subsequently to PSStrans with 434 nm. PSS aliquots were withdrawn, diluted with MeCN and subjected to LCMS analysis with the corresponding isosbestic points wavelength: 278, 263 and 308 nm for Opto-prop-1-3, respectively.
smiles,measurement,setting,value
CC(C)NCC(O)COc1cccc(N=Nc2ccccc2)c1 (stereo not shown) [Opto-prop-2],"isomerization half-life, 360 nm","[1]; 1H NMR, 10 mM in DMSO-d6",4 min
same,"isomerization half-life, 434 nm","[1]; 1H NMR, 10 mM in DMSO-d6",3 min
same,cis-isomer at PSScis,"[1]; 1H NMR, 360 nm, 10 mM in DMSO-d6",86 mol%
same,cis-isomer at PSStrans,"[1]; 1H NMR, 434 nm, 10 mM in DMSO-d6",20 mol%
same,fitted cis-isomer at PSScis,"[1]; LCMS, 360 nm",94%
same,isomerization half-life to PSScis,"[1]; LCMS, 360 nm",4 min
same,fitted cis-isomer at PSStrans,"[1]; LCMS, 434 nm",23%
same,isomerization half-life to PSStrans,"[1]; LCMS, 434 nm",3 min
same,PSScis (% cis-isomer),[2]; 10 mM in DMSO after illumination with 360 nm,92.8 ± 0.4 % cis-isomer
same,PSStrans (% cis-isomer),"[2]; 10 mM in DMSO, 360 nm then 434 nm",26 % cis-isomer and 25.9 ± 0.4 % cis-isomer
